Legend:
VDAC1 [1] = assay: VDAC1 oligomerization in spinal cord mitochondria (EGS crosslinking); format: biochemical; settings: spinal cord mitochondria 1 mg/mL from SOD1^G93A mice, VBIT-4 20 μM, 10 min pre-incubation, PBS pH 8.3, 20 min, 30 °C, immunoblot, dimer quantification, n = 3
Description: (§1) Figure 3 VDAC1 oligomerization is increased in mutant SOD1^G93A spinal cord mitochondria. […] A cell viability analysis was performed using the CellTiter 96 AQueous One-Solution cell proliferation assay using a plate reader at 490 nm. (B,C) Spinal cord mitochondria (1 mg/mL) from non-transgenic, SOD1^WT or SOD1^G93A rats were incubated for 10 min at 30 °C in 10 mM Tricine, pH 8.2, with the indicated concentration of the crosslinking reagent EGS (B) or DSP (C). Sample buffer for electrophoresis containing 2-mercaptoethanol, except for DSP (S-S-containing reagent), was added, and the samples were subjected to SDS/PAGE (10% gel) and immunoblot analysis using anti-VDAC1 antibodies. (D,E) Spinal cord mitochondria (1 mg/mL, n = 3) from non-transgenic or SOD1^G93A mice were incubated for 20 min at 30 °C in PBS, pH 8.3, with the indicated concentration of EGS, and subjected to SDS-PAGE (10%), immunoblotting (D), and quantitative analysis (E). (F,G) Spinal cord mitochondria isolated from SOD1^G93A mice were pre-incubated with VBIT-4 (10 min, 20 μM) and subjected to cross linking as described in D. Samples were subjected to SDS/PAGE 4–15% gradient gel and immunoblotting using anti-VDAC1 antibodies (F) and to dimer quantitative analysis (G). VDAC1 dimer levels were quantified using ImageJ software. The positions of VDAC1 monomers, dimers, trimers, tetramers, and higher oligomers are indicated. […]

[2] = system: mutant SOD1^G93A transgenic mice; assay: SOD1^G93A mouse ALS model, drinking water treatment; format: in vivo; settings: SOD1^G93A female mice, drinking water 0.0625 mg/mL, about 20 mg/kg daily; n = 10; vs DMSO
Description: (§2) Mutant SOD1^G93A transgenic mice (B6SJL-TgN-SOD1-G93A-1Gur) were obtained from The Jackson Laboratory (Bar Harbor, ME, USA) for the experiments. All experiments were approved by the Animal Care and Use Committee of Ben-Gurion University of the Negev, as required by Israeli legislation, and all efforts were taken to minimize animal suffering.
VBIT-4 and VBIT-12 were dissolved in DMSO (80 mg/mL) and then diluted in drinking water while being added in a dropwise manner into the acidic water to a final concentration of 0.0625 mg/mL. Considering an estimated daily water consumption of a 25 g mouse as 6–8 mL per mouse, the daily dose of VBIT-4 and VBIT-12 was determined. Assuming a mouse drinks about 8 mL of water daily, it consumed 20 mg/kg of the compound. Control untreated WT mice received water containing DMSO (0.36%) at the final concentration as in VBIT-4 or VBIT-12 drinking solutions. Mutant SOD1^G93A female mice were randomly divided to receive drinking water containing VBIT-4, VBIT-12, or DMSO for the control. Water consumption was verified daily.
Mean age of disease onset, defined as the time when mice reached peak body weight (A, B), and disease end stage, defined as the time when the mouse could not right itself within 20 s when placed on its side (C, D) of mutant SOD1G93A mice without (control, n = 10, blue) and with treatment of VBIT‐4 (n = 10, red) or VBIT‐12 (n = 10, green) through drinking water. The results are the means ± SD. (E–G) Mean (± SD) duration of early disease (from onset to 10% weight loss) (E), duration of late disease (from 10% weight loss to end stage) (F), and disease progression (from onset to end stage) (G). At each time point, the p‐ value was determined by a Student’s t‐test. Error bars denote SDs. Plot of averaged forelimb (H) and hindlimb (I) grip strength for SOD1G93A female mice untreated (n = 10, blue), treated with VBIT‐4 (n = 10, red), or treated with VBIT‐12 (n = 10, green) through the drinking water. SOD1G93A mice were monitored up to the end stage. The untreated SOD1G93A mice received water with the same concentration of DMSO as controls. At each time point, the p‐value was determined by a Student’s t‐test. Error bars denote SDs.
Table S1. Antibodies used in the study

VDAC1 [3] = system: VDAC1; set-up: method as in PMID 27738100, PMID 30293774, PMID 31857488, PMID 34217890; settings: ref [49], [43], [44], [45]; cited from earlier work
mice = settings: mouse, in vivo; cited from earlier work
Description: Mutant SOD1^G93A female mice were divided into three groups (10 mice per group): a control group (DMSO), VBIT-4-, and VBIT-12-treated groups.

[4] = system: release of mitochondrial DNA (mtDNA); cGAS/STING; set-up: method as in PMID 34217890; settings: ref [45]; cited from earlier work
[5] = system: iPSC-derived motor neurons from ALS patients carrying mutations in TDP-43; set-up: method as in PMID 33031745; settings: TDP-43 mutations, ref [58]; cited from earlier work
VDAC1 oligomerization = settings: ref [49]; cited from earlier work
[6] = system: motor-neuron-like NSC-34 cells expressing human SOD1^G93A; assay: Viability of NSC-34 cells expressing mutant SOD1^G93A; format: cell-based; settings: NSC-34, human SOD1^G93A; VBIT-12 15 µM, 12 h, 24 h post-transfection; 490 nm; n = 3, means ± SEM
Description: as §1

[7] = system: mutant SOD1^G93A transgenic mice; assay: SOD1^G93A mouse ALS model, IP treatment; format: in vivo
Description: Mean age of disease onset, defined as the time when mice reached peak body weight as a function of time (A,B), and disease end stage, defined as the time when the mouse could not right itself within 20 s when placed on its side (C,D) considering mutant SOD1^G93A mice IP-injected every second day with 200 µL DMSO 4% (control, n = 10, blue) or with VBIT-12 (26 mg/kg) (n = 10, green). The results are the means ± SD. (E–G) The means ± SD for the duration of early disease (from onset to 10% weight loss) (E), duration of late disease (from 10% weight loss to end stage) (F), and disease progression (from onset to end stage) (G) are presented. Plots of the averaged forelimb (H) and hindlimb (I) grip strength for SOD1^G93A female mice untreated (n = 10, blue) or treated with VBIT-12 (n = 10, green). SOD1^G93A mice were monitored up to the end stage. At each time point, the p-value was determined by Student’s t-test with SD. * p < 0.05; ns, non-significant.
as §2
For intraperitoneal (IP) injection, VBIT-12 (80 mg/mL) in DMSO was diluted with saline, pH 7.0, to a final concentration of 3.25 mg/mL. Mice received 200 µL by IP injection resulting in a final VBIT-12 concentration of ~26 mg/Kg. VBIT-12 was IP injected every second day starting from day 60 for 12 weeks, and then the VBIT-12 final concentration was reduced to ~13 mg/Kg. The control group was IP injected with around 200 µL of DMSO (4%).

[8] = SOD1^G93A female mice, IP 26 mg/kg every other day from day 60, then ~13 mg/Kg, n = 10, during disease progression, Student's t-test
[9] = SOD1^G93A mice, IP 26 mg/kg every other day from day 60 for 12 weeks, then ~13 mg/Kg, n = 10, vs DMSO 4%

## O=C(CC(CO)N1CCN(c2ccc(OC(F)(F)F)cc2)CC1)Nc1ccc(Cl)cc1 (stereo not drawn) [VBIT-4]
VDAC1 [1]
  inhibition of VDAC1 oligomerization: inhibited the oligomerization of VDAC1
[2]
  disease onset (peak body weight): no effect on disease onset
  survival (disease end stage): no effect on disease onset (Figure S3A,B) or survival
VDAC1 [3]
  inhibition of VDAC1 conductance: inhibit VDAC1 conductance
mice
  tolerability: well tolerated in mice
[4]
  inhibition of mtDNA release and inflammation: inhibit the release of mitochondrial DNA (mtDNA) via preventing VDAC1 oligomerization and inhibiting inflammation
[5]
  prevention of cytosolic accumulation of mtDNA and inflammation: prevented the cytosolic accumulation of mtDNA and inflammation
VDAC1 oligomerization
  effect on cells under physiological conditions: no effect on cells under physiological conditions
  prevention of VDAC1 oligomerization and apoptotic cell death: prevent both VDAC1 oligomerization and apoptotic cell death
  prevention of cytosolic Ca^2+ elevation and ROS production: prevent VDAC1 oligomerization, and, thereby, apoptosis and apoptosis-associated processes such as cytosolic Ca^2+ elevation and ROS production

## O=C(O)CNC(=O)C1(Nc2ccccc2)CCN(Cc2cccc3ccccc23)CC1 [VBIT-12]
[6]
  prevention of mutant SOD1 cell toxicity (cell survival): partially prevented the mutant SOD1 cell toxicity effect
[2]
  disease onset (peak body weight): no effect on disease onset
  muscle endurance, hindlimb grip strength: some benefit on muscle endurance as measured by grip strength in the hindlimbs
  survival (disease end stage): no effect on disease onset (Figure S3A,B) or survival
[7]; [8]
  forelimb grip (pulling) strength: significantly greater pulling strength
  hindlimb grip (pulling) strength: significantly greater pulling strength
[7]; SOD1^G93A mice, IP 26 mg/kg every other day from day 60, then ~13 mg/Kg, n = 10, vs DMSO 4%
  maintenance of limb muscle strength over time: maintained their limb muscle strength for a significantly more extended period of time
[7]; [9]
  disease onset: positive tendency in delaying disease onset (Figure 5A,B) and survival of SOD1^G93A mice, although this was not statistically significant
  survival: positive tendency in delaying disease onset (Figure 5A,B) and survival of SOD1^G93A mice, although this was not statistically significant
[7]; SOD1^G93A transgenic mice, "daily treatment" as worded in the discussion
  muscle function and survival (summary): significantly improved muscle function, without extending survival
VDAC1 [3]
  inhibition of VDAC1 conductance: inhibit VDAC1 conductance
VDAC1 oligomerization
  effect on cells under physiological conditions: no effect on cells under physiological conditions
  prevention of VDAC1 oligomerization and apoptotic cell death: prevent both VDAC1 oligomerization and apoptotic cell death
  prevention of cytosolic Ca^2+ elevation and ROS production: prevent VDAC1 oligomerization, and, thereby, apoptosis and apoptosis-associated processes such as cytosolic Ca^2+ elevation and ROS production

Source: publication PMC9456491, “Targeting the Mitochondrial Protein VDAC1 as a Potential Therapeutic Strategy in ALS” (International Journal of Molecular Sciences, 2022)
